Assay results taken from US20160129155A1, “MUSCULOSKELETAL TISSUE FABRICATION” (University of Pittsburgh - Of the Commonwealth System of …, priority 2014, published 2016).

Key:
[1] = tested on: engineered osteochondral constructs; assay: IL-1β treatment of engineered osteochondral constructs, real time PCR; type: cell-based, human; settings: 10 ng/ml, 7 days
Experimental: Real time PCR. Chondral and osseous constructs were collected separately. To avoid the potential contamination, the bonded margin of each construct was cut away using a razor blade. Total RNA was extracted using Trizol (Invitrogen) following the standard protocol and purified with the RNeasy Plus mini kit (Qiagen, Hilden, Germany). SuperScript III kit (Invitrogen) was utilized with random hexamer primers to complete the reverse transcription. Real-time RT-PCR was performed using the StepOnePlus thermocycler (Applied Biosystems, Foster City, Calif.) and SYBR Green Reaction Mix (Applied Biosystems). Sox 9, Aggrecan (ACN) and collagen type II (COL2A1), RunX2, Osteocalcin (OCN), Bone sialoprotein (BSP II) expression were analyzed. Monolayers of hBMSCs cultured in GM on 2D tissue culture plastic were used as negative controls. Transcript level of 18S rRNA was used as endogenous control: […], Gene expression folder changes were calculated using the Comparative CT (ΔΔCT) method.
(§1) IL-1β treatment in engineered micro-osteochondral constructs. After 4 weeks of differentiation, engineered the osteochondral constructs were treated with IL-1β […], R&D) on the chondral or osseous sides only to investigate the cell/neo-tissue response to pro-inflammatory cytokines and possible communication through the osteochondral construct. The media used in this test were CM without TGF-β3 (chondral) and OM without BMP-2 (osseous) both supplemented with 5 ng/ml There were experimental groups: (1) CM/GM, (2) CM+IL1-1β/GM, (3) CM/GM+IL1-1β. The treatment lasted 7 days, with effluent medium collected and frozen at 1, 7 days for ELISA. After 7 days, the osteochondral constructs were bisected into the chondral and osseous halves and processed for gene expression analysis as described before. In addition to tissue specific gene expression, matrix metalloproteinase 1, 3, 13 were also analyzed.
(§2) IL1β treatment on engineered osteochondral tissue. As described above, the microtissue bioreactor presented here, with its two separate medium flow systems and biphasic construct compartments, has the capability for targeted treatment of one (or both) tissue construct(s) with soluble factors. Osseous and chondral components were separately treated with the pro-inflammatory cytokine IL-1β (10 ng/ml) for 7 days (control conditions consisted of untreated osteochondral constructs), and the responses of each of the two components were separately analyzed. Media samples were collected from chondral and osseous components streams at day 1 and 7, and, after day 7, the osteochondral constructs were separated into osseous and chondral components, and each was separately analyzed for gene expression of catabolic genes (MMP-1, MMP-3, MMP-13) and either cartilage markers (Sox9, Col2, aggrecan) (FIG. 20) or bone markers (RUNX2, osteocalcin, BSPII) (FIG. 21). Media samples from the chondral and osseous components stream collected at days 1 and 7 were analyzed via MMP-1, MMP-3, and MMP-13 ELISAs (FIG. 22).

[2] = tested on: engineered osteochondral constructs; assay: IL-1β treatment of engineered osteochondral constructs, MMP ELISA of medium; type: cell-based, human
Experimental: as §1
Enzyme-linked immunosorbent assay (ELISA). Media was collected separately from chondral and osseous constructs, cleared of cell debris via centrifugation (1000×g), and analyzed via IL-1β (Abcam, Cambridge, Mass.), MMP-1 (R&D), MMP-3 (Abcam, Cambridge, Mass.), and MMP-13 (Abcam) ELISAs according to the manufacturers' instructions.
as §2

[3] = tested on: hASCs; assay: Chondrogenesis of hASCs in VL-PSL constructs (RT-PCR, hydroxyproline, histology, IHC); type: cell-based, human
Experimental: (§3) The fabricated constructs were detached from the platform and washed 3 times to remove uncured polymer solution. The constructs were cultured in control medium (CM, DMEM with 1% L-alanyl-L-glutamine, 55 μM sodium pyruvate, 1× antibiotic-antimycotic, and 1% Insulin-Transferrin-Selenium (ITS)) or chondrogenic medium (CGM, CM supplemented with 10 ng/ml transforming growth factor-β3 (TGF-β3), 100 nM dexamethasone, 50 μM L-ascorbic acid 2-phosphate, and 23 μM L-proline) up to 28 days, which were designated as Control or TGF-β3 group, respectively.
Total RNA of the cells within the constructs was isolated using TRIZOL reagent and purified. Reverse transcription reactions were performed. Real-time PCR was performed with a thermocycler. All sample values were normalized to 18S rRNA using the 2^−ΔΔCt method.
Total collagen content deposited within the constructs was determined by measuring hydroxylproline levels. The constructs (5 mm diameter and 2 mm thickness) were homogenized in water by grinding and hydrolyzed using the same volume of 12N HCl at 120° C. for 3 hours. Hydroxyproline content in constructs was quantitated using a Hydroxyproline Colorimetric Assay Kit.
After 28 days culture, constructs were removed from the incubator, washed twice, and fixed in buffered paraformaldehyde (4%) for 1 day at room temperature. After washed with PBS for 3 times, they were then cryosectioned using a cryostat at 8 μm thickness. For assessment of glycosaminoglycan deposition, the slides were stained with either Alcian Blue or Safranin-O/Fast Green following standard protocols.
Enzymatic antigen retrieval was performed using chondroitinase/hyaluronidase (1 mg/ml and 5 mg/ml) at 37° C. for 30 min, and was suppressed with 1% horse serum in PBS for 45 min. After blocking endogenous peroxidase (3% H2O2 in methanol for 10 min) and nonspecific binding (1% horse serum), slices were incubated with primary antibodies against collage type II overnight at 4° C. After washing, biotinylated secondary antibodies were applied for 30 min. Staining was developed by treating samples with horseradish peroxidase (HRP)-conjugated streptavidin/NovaRED™ peroxidase substrate.

[4] = tested on: hASCs; type: cell-based; settings: 28 days
Experimental: P3 hASCs were pelleted by centrifugation and the supernatant was completely removed. The polymer solution prepared above was used to re-suspend hASCs at 4×10^6cells/ml, and then the cell-polymer solution was immediately poured into the basement plate of the PSL device for printing with different 3D models as the template.
as §3
At various time points post-fabrication, cell viability was assessed with the Live/Dead Viability/Cytotoxicity kit as examined by epifluorescence microscopy. The percentage of live cells was calculated as the number of green-staining cells divided by the total number of cells (green & red staining cells).

[5] = IL-1β treatment of chondral construct
[6] = IL-1β treatment of osseous component
[7] = day 28, TGF-β3 group versus control group

Substance	MMPs production in the osseous construct [1, 5]	osseous construct expression of osteocalcin and BSPII [1, 5]	chondral construct expression of Sox9, Col2 and aggrecan ([1]; IL-1β treatment of chondral constructs)	chondral construct expression of MMP-1, MMP-3 and MMP-13 [1, 6]	chondral construct expression of Sox9, Col2 and aggrecan ([1]; IL-1β treatment of osseous constructs)	osseous construct MMP secretion response ([2]; IL-1β treatment of chondral component, days 1 and 7)	chondral MMP-1, MMP-3 and MMP-13 secretion [2, 6]	chondral MMP-1 response time [2, 6] [days]	chondral MMP-13 response time [2, 6] [days]	Alcian Blue and Safranin O staining (GAG) ([3]; day 28, TGF-β3 group)	IHC for collagen type II ([3]; day 28, TGF-β3 group)	hydroxyproline level ([3]; day 28, TGF-β3 group) [μg/construct]	Runx2 expression [3, 7]	expression of Sox 9, aggrecan and collagen II [3, 7]	cell viability ([4]; chondrogenic medium supplemented with TGF-β3) [%]	cell proliferation by MTS assay ([4]; chondrogenic medium with TGF-β3)
interleukin-1β [IL-1β]	increases	decreases	decreases	increased substantially	decreased	quick yet increased further over time	increases	7	≤ 1	–	–	–	–	–	–	–
transforming growth factor-β3 [TGF-β3]	–	–	–	–	–	–	–	–	–	dense, strong staining	positive staining	21.16±7.15	higher in the control group	significantly higher	77	promoted cell proliferation
